Values quoted from earlier work as cited in patent US20250034331A1, “POLYESTER URETHANE BIORESORBABLE ELASTOMERS WITH MICROSTRUCTURES FOR TUNABLE DRUG RELEASE AND TUNABLE DEGRADATION” (SOLESIS, INC., priority 2023, published 2025).

Legend:
[1] = humans

Structure (SMILES) | time of excretion [1] [h] | solubility in PBS
NCCCCCCN [HDA, hexamethylene diamine] | ≤ 10 | 
C[C@@H]1C[C@H]2[C@@H]3CCC4=CC(=O)C=C[C@]4(C)[C@@]3(F)[C@@H](O)C[C@]2(C)[C@@]1(O)C(=O)CO [dexamethasone] |  | about 75 μg/mL
